Where a name gives a salt, the structure may show the parent alone.
System: IL-1β release upon NLRP3 activation in peripheral blood mononuclear cells (PBMC)
Assay: PBMC IC50 determination assay: inhibition of IL-1β release upon NLRP3 activation
Type: cell-based
Conditions: PBMC, PBMC primed with LPS 3 h, compound 30 min, stimulated with ATP (5 mM) or nigericin (10 μM) 1 h; IL-1β by ELISA (Protocol A) or HTRF (Protocol B)
Description: PBMC IC50 determination assay. The compounds of the present disclosure were tested for their inhibitory activity against IL-1β release upon NLRP3 activation in peripheral blood mononuclear cells (PBMC).
Protocol A. PBMC were isolated from buffy coats by density gradient centrifugation on Histopaque-1077 (Sigma, cat no. 10771). Isolated cells were seeded into the wells of a 96-well plate and incubated for 3 h with lipopolysaccharide (LPS). Following medium exchange, the compounds of the present disclosure were added (a single compound per well) and the cells were incubated for 30 min. Next, the cells were stimulated either with ATP (5 mM) or nigericin (10 μM) for 1 h and the cell culture media from the wells were collected for further analysis.
The release of IL-1β into the media was determined by a quantitative detection of IL-1β in the media using an IL-1β enzyme-linked immunosorbent assay (ELISA) Ready-SET-Go!, eBioscience cat. No. 88-7261-88. Briefly, in a first step, high affinity binding plates (Corning, Costar 9018 or NUNC Maxisorp Cat No. 44-2404) were coated overnight at 4° C. with specific capture antibody included in the kit (anti-human IL-1β ref. 14-7018-68). Subsequently, plates were blocked with blocking buffer for 1 h at room temperature (rt) and after washing with a buffer (PBS with 0.05% Tween-20) incubated with protein standard and culture media. After 2 h of incubation at rt, plates were washed and incubated with biotinylated detection antibody included in the kit (anti-human IL-1β Biotin ref 33-7110-68) for 1 h at rt. Plates were washed and incubated with HRP-streptavidin for 30 min at rt and washed again. The signal was developed after addition of 3,3′,5,5′-tetramethylbenzidine-peroxidase (TMB) until colour appeared and the reaction was stopped by 2 M H2SO4. A microplate spectrophotometer (BioTek) was used to detect signals with 450 nm. The detection range of IL-1β ELISA was […].
Protocol B. PBMC were isolated from buffy coats by density gradient centrifugation on Histopaque-1077 (Sigma, cat no. 10771). Isolated cells were seeded into the wells (280,000 cells/well) of a 96-well plate and incubated for 3 h with lipopolysaccharide (LPS, 1 μg/mL diluted 1000× from a 1 mg/mL stock solution). The compounds of the present disclosure were added (a single compound per well) and the cells were incubated for 30 min. Next, the cells were stimulated with ATP (5 mM final concentration diluted 20× from a 100 mM stock solution) for 1 h and the cell culture media from the wells were collected for further analysis.
The release of IL-1β into the media was determined by quantitative detection of IL-1β in the media using HTRF®, CisBio cat. No. 62HIL1BPEH. Briefly, cell culture supernatant were dispensed directly into the assay plate containing antibodies labelled with the HTRF® donor and acceptor. A microplate spectrophotometer (BMG) was used to detect signals at 655 nm and 620 nm. The detection range of IL-1β HTRF® was 39-6500 μg/mL.

| Structure (SMILES) | IC50 |
| --- | --- |
| CCc1nn(CC(=O)NC2CC3(COC3)C2)c(=O)c2cn(CC)nc12 [Compound 22, 2-(2,7-Diethyl-4-oxo-pyrazolo[3,4-d]pyridazin-5-yl)-N-(2-oxaspiro[3.3]heptan-6-yl)acetamide] | 10000 to 50000 nM |
| CCn1cc2c(=O)n(CC(=O)Nc3ncc(F)cn3)nc(C(C)C)c2n1 [Compound 8, 2-(2-Ethyl-7-isopropyl-4-oxo-pyrazolo[3,4-d]pyridazin-5-yl)-N-(5-fluoropyrimidin-2-yl)acetamide] | 100 to 1000 nM |
| [2H]C([2H])([2H])Nc1cc2c(C(C)C)nn(CC(=O)Nc3ncccn3)c(=O)c2s1 [Compound 109, 2-{2-Trideuteromethylamino-7-oxo-4-(propan-2-yl)-6H,7H-thieno[2,3-d]pyridazin-6-yl}-N-(pyrimidin-2-yl)acetamide] | ≤ 100 nM |
| CCOC(=O)Cc1cnc(NC(=O)Cn2nc(C)c3oc(C4CC4)cc3c2=O)nc1 [Compound 92, Ethyl 2-[2-(2-{2-cyclopropyl-7-methyl-4-oxo-4H,5H-furo[2,3-d]pyridazin-5-yl}acetamido)pyrimidin-5-yl]acetate] | 100 to 1000 nM |
| CC(C)c1nn(CC(=O)N[C@@H]2CCCN(C3CC3)C2)c(=O)c2ncn(C)c12 [Compound 14, N-[(3R)-1-Cyclopropyl-3-piperidyl]-2-(7-isopropyl-1-methyl-4-oxo-imidazo[4,5-d]pyridazin-5-yl)acetamide] | 10000 to 50000 nM |
| CCc1nn(CC(=O)Nc2ncccn2)c(=O)c2ccc(C3CC3)nc12 [Compound 32, 2-(2-Cyclopropyl-8-ethyl-5-oxo-pyrido[2,3-d]pyridazin-6-yl)-N-pyrimidin-2-yl-acetamide] | 100 to 1000 nM |
| CNc1cc2c(C3CC3)nn(CC(=O)Nc3ncccn3)c(=O)c2s1 [Compound 112, 2-[4-Cyclopropyl-2-(methylamino)-7-oxo-6H,7H-thieno[2,3-d]pyridazin-6-yl]-N-(pyrimidin-2-yl)acetamide] | 100 to 1000 nM |
| CC(C)c1nn(CC(=O)Nc2ncccn2)c(=O)c2sc(CN)cc12 [Compound 120, 2-[2-(Aminomethyl)-7-oxo-4-(propan-2-yl)-6H,7H-thieno[2,3-d]pyridazin-6-yl]-N-(pyrimidin-2-yl)acetamide] | 10000 to 50000 nM |
| CCc1nn(CC(=O)Nc2ncccn2)c(=O)c2cc(C3CC3)oc12 [Compound 89, 2-{2-cyclopropyl-7-ethyl-4-oxo-4H,5H-furo[2,3-d]pyridazin-5-yl}-N-(pyrimidin-2-yl)acetamide] | 100 to 1000 nM |
| COCc1cc2c(C(C)C)nn(CC(=O)N[C@@H]3CCCN(C4CCC4)C3)c(=O)c2s1 [Compound 31, N-[(3R)-1-Cyclobutyl-3-piperidyl]-2-[4-isopropyl-2-(methoxymethyl)-7-oxo-thieno [2,3-d]pyridazin-6-yl]acetamide hydrochloride] | 1000 to 3000 nM |
| CC(C)c1nn(CC(=O)Nc2ncccn2)c(=O)c2sc(NCC(F)F)cc12 [Compound 95, 2-{2-[(2,2-Difluoroethyl)amino]-7-oxo-4-(propan-2-yl)-6H,7H-thieno[2,3-d]pyridazin-6-yl}-N-(pyrimidin-2-yl)acetamide] | 100 to 1000 nM |
| CC(C)c1nn(CC(=O)Nc2ncccn2)c(=O)c2sc(N)cc12 [Compound 101, 2-[2-Amino-7-oxo-4-(propan-2-yl)-6H,7H-thieno[2,3-d]pyridazin-6-yl]-N-(pyrimidin-2-yl)acetamide] | 1000 to 3000 nM |
| Cc1nn(CC(=O)Nc2ncc(F)cn2)c(=O)c2ccc(C3CC3)nc12 [Compound 35, 2-(2-Cyclopropyl-8-methyl-5-oxo-pyrido[2,3-d]pyridazin-6-yl)-N-(5-fluoropyrimidin-2yl)acetamide] | 100 to 1000 nM |
| CCc1nn(CC(=O)Nc2ncc(F)cn2)c(=O)c2cn(CC)nc12 [Compound 20, 2-(2,7-Diethyl-4-oxo-pyrazolo[3,4-d]pyridazin-5-yl)-N-(5-fluoropyrimidin-2-yl)acetamide] | 10000 to 50000 nM |
| CC(C)c1nn(CC(=O)Nc2ncc(F)cn2)c(=O)c2cn(C(C)C)nc12 [Compound 15, 2-(2,7-Diisopropyl-4-oxo-pyrazolo[3,4-d]pyridazin-5-yl)-N-(5-fluoropyrimidin-2-yl)acetamide] | 100 to 1000 nM |
| CC(C)c1nn(CC(=O)N[C@@H]2CCCN(C3CCC3)C2)c(=O)c2sc(Br)cc12 [Compound 29, 2-(2-Bromo-4-isopropyl-7-oxo-thieno[2,3-d]pyridazin-6-yl)-N-[(3R)-1-cyclobutyl-3-piperidyl]acetamide] | 100 to 1000 nM |

| Structure (SMILES) | IC50 |
| --- | --- |
| CC(C)c1nn(CC(=O)N[C@H]2C[C@@](C)(O)C2)c(=O)c2cc(C3CC3)oc12 [Compound 81, 2-(2-Cyclopropyl-7-isopropyl-4-oxofuro[2,3-d]pyridazin-5(4H)-yl)-N-((1s,3s)-3-hydroxy-3-methylcyclobutyl)acetamide] | 100 to 1000 nM |
| CC(C)c1nn(CC(=O)Nc2ncc(Cl)cn2)c(=O)c2cn(C(C)C)nc12 [Compound 67, N-(5-Chloropyrimidin-2-yl)-2-(2,7-diisopropyl-4-oxo-2,4-dihydro-5H-pyrazolo[3,4-d]pyridazin-5-yl)acetamide] | 100 to 1000 nM |
| CCc1ccc2c(=O)n(CC(=O)Nc3ncccn3)nc(C(C)C)c2n1 [Compound 42] | 100 to 1000 nM |
| Cc1nn(CC(=O)Nc2ncccn2)c(=O)c2sc(C3CC3)cc12 [Compound 88, 2-{2-Cyclopropyl-4-methyl-7-oxo-6H,7H-thieno[2,3-d]pyridazin-6-yl}-N-(pyrimidin-2-yl)acetamide] | 100 to 1000 nM |
| CCc1cc2c(=O)n(CC(=O)Nc3ncc(F)cn3)nc(CC)c2o1 [Compound 55, 2-(2,7-Diethyl-4-oxofuro[2,3-d]pyridazin-5(4H)-yl)-N-(5-fluoropyrimidin-2-yl)acetamide] | 100 to 1000 nM |
| Cc1cnc(NC(=O)Cn2nc(C(C)C)c3nn(C(C)C)cc3c2=O)nc1 [Compound 63, 2-(2,7-Diisopropyl-4-oxo-pyrazolo[3,4-d]pyridazin-5-yl)-N-(5-methylpyrimidin-2-yl)acetamide] | 100 to 1000 nM |
| Cc1nn(CC(=O)Nc2ccc3nncn3c2)c(=O)c2cc(C3CC3)oc12 [Compound 103, 2-{2-Cyclopropyl-7-methyl-4-oxo-4H,5H-furo[2,3-d]pyridazin-5-yl}-N-{[1,2,4]triazolo[4,3-a]pyridin-6-yl}acetamide] | 1000 to 3000 nM |
| CCc1nc2c(C(C)C)nn(CC(=O)Nc3ncc(F)cn3)c(=O)c2s1 [Compound 36] | ≤ 100 nM |
| CCOC(=O)c1cnc(NC(=O)Cn2nc(C)c3cc(C4CC4)sc3c2=O)nc1 [Compound 86, Ethyl 2-(2-{2-cyclopropyl-4-methyl-7-oxo-6H,7H-thieno[2,3-d]pyridazin-6-yl}acetamido)pyrimidine-5-carboxylate] | 100 to 1000 nM |
| CCc1nn(CC(=O)Nc2ncc(F)cn2)c(=O)c2ccc(C3CC3)nc12 [Compound 33, 2-(2-Cyclopropyl-8-ethyl-5-oxo-pyrido[2,3-d]pyridazin-6-yl)-N-(5-fluoropyrimidin-2-yl)acetamide] | 100 to 1000 nM |
| CC(C)c1nn(CC(=O)N[C@@H]2CCCN(C3CC3)C2)c(=O)c2cnn(C)c12 [Compound 2, N-[(3R)-1-Cyclopropyl-3-piperidyl]-2-(7-isopropyl-1-methyl-4-oxo-pyrazolo[3,4-d]pyridazin-5-yl)acetamide] | 1000 to 3000 nM |
| CC(C)c1nn(CC(=O)N[C@@H]2CCCN(C3CC3)C2)c(=O)c2cn(C)nc12 [Compound 3, N-[(3R)-1-Cyclopropyl-3-piperidyl]-2-(7-isopropyl-2-methyl-4-oxo-pyrazolo[3,4-d]pyridazin-5-yl)acetamide] | 3000 to 10000 nM |
| CC(C)c1nn(CC(=O)Nc2ncc(F)cn2)c(=O)c2sc(Cl)nc12 [Compound 61] | 1000 to 3000 nM |
| Cc1nn(CC(=O)N[C@@H]2CCCN(C3CCC3)C2)c(=O)c2ccc(C3CC3)nc12 [Compound 47] | 100 to 1000 nM |
| Cc1cc2c(C)nn(CC(=O)Nc3ncccn3)c(=O)c2s1 [Compound 117, 2-{2,4-Dimethyl-7-oxo-6H,7H-thieno[2,3-d]pyridazin-6-yl}-N-(pyrimidin-2-yl)acetamide] | 1000 to 3000 nM |
| CCc1cc2c(C(C)C)nn(CC(=O)N[C@H]3C[C@@](C)(O)C3)c(=O)c2s1 [Compound 69, 2-(2-Ethyl-4-isopropyl-7-oxothieno[2,3-d]pyridazin-6(7H)-yl)-N-((cis)-3-hydroxy-3-methylcyclobutyl)acetamide] | 100 to 1000 nM |
